Measured values as given in PubChem BioAssay AID330 (DTP/NCI, 2004).
Several values for one entry are separate records, joined by “and”; a condition that tells them apart may be missing. Equal entries are not always repeated. Inconclusive results and toxic doses are left out.

Test system: P388 leukemia ip, CD2F1 mice, survival T/C
Assay: NCI In Vivo Anticancer Drug Screen. Data for tumor model P388 Leukemia (intraperitoneal) in CD2F1 (CDF1) mice
Conditions: endpoint: median survival time, higher = longer survival
In short: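 Mice carrying the transplanted tumor received test compound or vehicle. Survival was recorded in each group, and the value is the treated-group measurement divided by that of the vehicle-treated control group.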

[1] = dose: 50.0 mg/kg/injection, schedule: Q01DX005 (ip), vehicle: saline
[2] = dose: 100.0 mg/kg/injection, schedule: Q01DX005 (ip), vehicle: saline
[3] = dose: 12.5 mg/kg/injection, schedule: Q01DX009 (ip), vehicle: water
[4] = dose: 25.0 mg/kg/injection, schedule: Q01DX009 (ip), vehicle: water
[5] = dose: 50.0 mg/kg/injection, schedule: Q01DX009 (ip), vehicle: water
[6] = dose: 50.0 mg/kg/injection, schedule: Q01DX005 (ip), vehicle: saline with Tween-80
[7] = dose: 50.0 mg/kg/injection, schedule: Q01DX005 (ip), vehicle: Klucel (hydroxypropylcellulose) (HPC)
[8] = dose: 100.0 mg/kg/injection, schedule: Q01DX005 (ip), vehicle: Klucel (hydroxypropylcellulose) (HPC)
[9] = dose: 50.0 mg/kg/injection, schedule: Q01DX009 (ip), vehicle: saline with Tween-80
[10] = dose: 100.0 mg/kg/injection, schedule: Q01DX009 (ip), vehicle: saline with Tween-80
[11] = dose: 100.0 mg/kg/injection, schedule: Q04DX002 (ip), vehicle: saline with Tween-80
[12] = dose: 200.0 mg/kg/injection, schedule: Q04DX002 (ip), vehicle: saline with Tween-80
[13] = dose: 400.0 mg/kg/injection, schedule: Q04DX002 (ip), vehicle: saline with Tween-80
[14] = dose: 200.0 mg/kg/injection, schedule: Q01DX005 (ip), vehicle: saline
[15] = dose: 50.0 mg/kg/injection, schedule: Q04DX003 (ip), vehicle: Klucel (hydroxypropylcellulose) (HPC)
[16] = dose: 100.0 mg/kg/injection, schedule: Q04DX003 (ip), vehicle: Klucel (hydroxypropylcellulose) (HPC)
[17] = dose: 100.0 mg/kg/injection, schedule: Q01DX005 (ip), vehicle: saline with Tween-80
[18] = dose: 200.0 mg/kg/injection, schedule: Q01DX005 (ip), vehicle: saline with Tween-80

SMILES: O=C(O)COCC(F)(F)C(F)(F)C(F)(F)COCC(=O)O
- T/C (dose: 176.0 mg/kg/injection, schedule: Q04DX003 (ip), vehicle: saline): 100 % of control
- T/C (dose: 264.0 mg/kg/injection, schedule: Q04DX003 (ip), vehicle: saline): 91 % of control
- T/C (dose: 400.0 mg/kg/injection, schedule: Q04DX003 (ip), vehicle: saline): 100 % of control

SMILES: CNC1=CC(=S)NC(C)(C)C1
- T/C (dose: 50.0 mg/kg/injection, schedule: Q01DX009 (ip), vehicle: saline): 100 % of control
- T/C (dose: 100.0 mg/kg/injection, schedule: Q01DX009 (ip), vehicle: saline): 92 % of control
- T/C (dose: 200.0 mg/kg/injection, schedule: Q01DX009 (ip), vehicle: saline): 92 % of control

SMILES: c1cc[c]([Sn]2([c]3ccccc3)[O]CCNCC[O]2)cc1
- T/C (dose: 25.0 mg/kg/injection, schedule: Q01DX005 (ip), vehicle: saline): 150 % of control
- T/C [1]: 153 % of control
- T/C [2]: 155 % of control and 160 % of control

SMILES: Oc1ccc[n+](CCCCCC[n+]2cccc(O)c2)c1
- T/C [3]: 118 % of control
- T/C [4]: 105 % of control
- T/C [5]: 110 % of control
- T/C (dose: 100.0 mg/kg/injection, schedule: Q01DX009 (ip), vehicle: water): 112 % of control
- T/C (dose: 200.0 mg/kg/injection, schedule: Q01DX009 (ip), vehicle: water): 102 % of control
- T/C (dose: 400.0 mg/kg/injection, schedule: Q01DX009 (ip), vehicle: water): 102 % of control

SMILES: C/C(=C/OS(=O)(=O)C(F)(F)F)c1ccccc1
- T/C (dose: 50.0 mg/kg/injection, schedule: Q01DX009 (ip), vehicle: olive oil, sesame oil, peanut oil): 105 % of control
- T/C (dose: 100.0 mg/kg/injection, schedule: Q01DX009 (ip), vehicle: olive oil, sesame oil, peanut oil): 116 % of control
- T/C (dose: 200.0 mg/kg/injection, schedule: Q01DX009 (ip), vehicle: olive oil, sesame oil, peanut oil): 87 % of control

SMILES: CCCCN1CCC(CNc2ccnc3cc(Cl)ccc23)C1 (stereo unspecified)
- T/C (dose: 12.5 mg/kg/injection, schedule: Q01DX005 (ip), vehicle: saline with Tween-80): 93 % of control
- T/C (dose: 25.0 mg/kg/injection, schedule: Q01DX005 (ip), vehicle: saline with Tween-80): 90 % of control
- T/C [6]: 109 % of control and 93 % of control

SMILES: CC1(C)NC(=O)N(CCCCCCN2C(=O)NC(C)(C)C2=O)C1=O
- T/C [7]: 94 % of control
- T/C [8]: 102 % of control
- T/C (dose: 400.0 mg/kg/injection, schedule: Q01DX005 (ip), vehicle: Klucel (hydroxypropylcellulose) (HPC)): 90 % of control

SMILES: NNC(=O)c1cc2ccccc2cc1O
- T/C [9]: 99 % of control
- T/C [10]: 100 % of control
- T/C (dose: 200.0 mg/kg/injection, schedule: Q01DX009 (ip), vehicle: saline with Tween-80): 95 % of control

SMILES: CN(C)CCCNc1cccc2c1C(=O)c1cccc(NCCCN(C)C)c1C2=O
- T/C (dose: 4.0 mg/kg/injection, schedule: Q01DX009 (ip), vehicle: acid diluted with saline): 105 % of control
- T/C (dose: 7.5 mg/kg/injection, schedule: Q01DX009 (ip), vehicle: saline): 101 % of control
- T/C (dose: 8.0 mg/kg/injection, schedule: Q01DX009 (ip), vehicle: acid diluted with saline): 105 % of control
- T/C (dose: 12.5 mg/kg/injection, schedule: Q01DX005 (ip), vehicle: water): 108 % of control
- T/C [3]: 100 % of control
- T/C (dose: 15.0 mg/kg/injection, schedule: Q01DX009 (ip), vehicle: saline): 108 % of control
- T/C (dose: 16.0 mg/kg/injection, schedule: Q01DX009 (ip), vehicle: acid diluted with saline): 104 % of control
- T/C (dose: 25.0 mg/kg/injection, schedule: Q01DX005 (ip), vehicle: water): 114 % of control
- T/C [4]: 100 % of control
- T/C (dose: 30.0 mg/kg/injection, schedule: Q01DX009 (ip), vehicle: saline): 100 % of control
- T/C (dose: 32.0 mg/kg/injection, schedule: Q01DX009 (ip), vehicle: acid diluted with saline): 104 % of control
- T/C (dose: 50.0 mg/kg/injection, schedule: Q01DX005 (ip), vehicle: water): 102 % of control
- T/C [5]: 100 % of control
- T/C (dose: 60.0 mg/kg/injection, schedule: Q01DX009 (ip), vehicle: saline): 102 % of control
- T/C (dose: 64.0 mg/kg/injection, schedule: Q01DX009 (ip), vehicle: acid diluted with saline): 102 % of control

SMILES: O=C1OCc2cc3c(cc2-c2ccccc21)OCO3
- T/C [11]: 95 % of control
- T/C [12]: 101 % of control
- T/C [13]: 91 % of control

SMILES: CCC1C(=O)OCC1Cc1cncn1C (stereo unspecified)
- T/C [1]: 100 % of control
- T/C [2]: 94 % of control
- T/C [14]: 98 % of control

SMILES: O=C(Nc1ccc(Cl)c(Cl)c1)OCc1cccnc1
- T/C (dose: 50.0 mg/kg/injection, schedule: Q01DX009 (ip), vehicle: Klucel (hydroxypropylcellulose) (HPC)): 95 % of control
- T/C (dose: 100.0 mg/kg/injection, schedule: Q01DX009 (ip), vehicle: Klucel (hydroxypropylcellulose) (HPC)): 97 % of control
- T/C (dose: 200.0 mg/kg/injection, schedule: Q01DX009 (ip), vehicle: Klucel (hydroxypropylcellulose) (HPC)): 95 % of control

SMILES: O=c1ccc2nc3ccccc3sc-2c1
- T/C (dose: 12.5 mg/kg/injection, schedule: Q01DX009 (ip), vehicle: saline with Tween-80): 90 % of control
- T/C (dose: 25.0 mg/kg/injection, schedule: Q01DX009 (ip), vehicle: saline with Tween-80): 104 % of control
- T/C [9]: 109 % of control

SMILES: CCOCCN1CCN(CCCN2c3ccccc3Sc3ccc(C(F)(F)F)cc32)CC1
- T/C (dose: 6.25 mg/kg/injection, schedule: Q04DX003 (ip), vehicle: saline): 104 % of control and 88 % of control
- T/C (dose: 12.5 mg/kg/injection, schedule: Q04DX003 (ip), vehicle: saline): 110 % of control and 118 % of control
- T/C (dose: 25.0 mg/kg/injection, schedule: Q04DX003 (ip), vehicle: saline): 115 % of control

SMILES: CN1CCN(c2cc3nc[nH]c(=O)c3cc2[N+](=O)[O-])CC1
- T/C [15]: 99 % of control
- T/C [16]: 104 % of control

SMILES: CC(C)C(Nc1ncnc2nc[nH]c12)C(=O)O (stereo unspecified)
- T/C [6]: 102 % of control
- T/C [17]: 102 % of control
- T/C [18]: 103 % of control

SMILES: CCc1[nH]c2ccc(C)cc2c1C(=O)c1cccnc1
- T/C [15]: 94 % of control
- T/C [16]: 103 % of control
- T/C (dose: 200.0 mg/kg/injection, schedule: Q04DX003 (ip), vehicle: Klucel (hydroxypropylcellulose) (HPC)): 98 % of control

SMILES: OCCOCCSc1ccccn1
- T/C [1]: 109 % of control
- T/C [2]: 111 % of control
- T/C [14]: 111 % of control

SMILES: CCOC(=O)CCC(C)(C#N)C(C#N)C(=O)OCC (stereo unspecified)
- T/C [10]: 100 % of control
- T/C (dose: 100.0 mg/kg/injection, schedule: Q04DX003 (ip), vehicle: saline with Tween-80): 100 % of control
- T/C (dose: 200.0 mg/kg/injection, schedule: Q04DX003 (ip), vehicle: saline with Tween-80): 100 % of control
- T/C (dose: 400.0 mg/kg/injection, schedule: Q01DX009 (ip), vehicle: saline with Tween-80): 100 % of control
- T/C (dose: 400.0 mg/kg/injection, schedule: Q04DX003 (ip), vehicle: saline with Tween-80): 100 % of control

SMILES: O=S(=O)(O)c1ccc2c(N=Nc3ccccc3[As](=O)(O)O)c(O)c(S(=O)(=O)O)cc2c1
- T/C [9]: 104 % of control
- T/C [10]: 113 % of control

SMILES: O=C(O)c1cccc(C(=O)O)c1Sc1ccc(Cl)cc1
- T/C [11]: 100 % of control
- T/C [12]: 105 % of control
- T/C [13]: 100 % of control

SMILES: CC(O)CC1C=CCC(CC(O)c2ccccc2)N1C (stereo unspecified)
- T/C (dose: 12.5 mg/kg/injection, schedule: Q01DX005 (ip), vehicle: Klucel (hydroxypropylcellulose) (HPC)): 102 % of control
- T/C (dose: 25.0 mg/kg/injection, schedule: Q01DX005 (ip), vehicle: Klucel (hydroxypropylcellulose) (HPC)): 100 % of control
- T/C [7]: 105 % of control

SMILES: CCC(C)(C)NCCCCCNc1cc(OC)cc2cccnc12
- T/C [7]: 94 % of control
- T/C [6]: 95 % of control
- T/C [8]: 101 % of control
- T/C [17]: 95 % of control
- T/C [18]: 91 % of control

SMILES: C[CH2][Ge]([Cl])([Cl])[CH2]C
- T/C [7]: 91 % of control
- T/C [8]: 87 % of control

SMILES: C=C1C(=O)OC2/C=C(\C)CC/C=C(/C(=O)OC)C(OC(C)=O)C(OC(=O)C(C)(O)C(C)O)C12 (stereo unspecified)
- T/C (dose: 3.0 mg/kg/injection, schedule: Q01DX009 (ip), vehicle: Klucel (hydroxypropylcellulose) (HPC)): 116 % of control
- T/C (dose: 12.0 mg/kg/injection, schedule: Q01DX009 (ip), vehicle: Klucel (hydroxypropylcellulose) (HPC)): 122 % of control
- T/C (dose: 24.0 mg/kg/injection, schedule: Q01DX009 (ip), vehicle: Klucel (hydroxypropylcellulose) (HPC)): 120 % of control
